Results published in US20240147994A1, “ENHANCED YEASTICIDAL EFFICACY OF LACTIC ACID BASED ANTIMICROBIAL HANDWASH” (ECOLAB USA INC., priority 2022, published 2024).
Values joined by “and” are separate entries in the source; they are usually repeats but may differ in a detail not shown here. Identical values can stand only once.

Tested on: Modified Vaccinia Virus, strain Ankara (MVA)
Format: cell-based
Settings: reference inactivation (LVP-Method)

C=O [0.7% (w/v) formaldehyde solution, formaldehyde]
Reduction factor [lg] ± 95.0% confidence interval, 5 min: 1.70 lg and 1.87 lg and 1.53 lg | Reduction factor [lg] ± 95.0% confidence interval, 15 min: 3.14 lg and 2.96 lg and 2.73 lg | lg-TCID50/ml after 5 min: 4.93 lg-TCID50/ml and 4.88 lg-TCID50/ml and 4.85 lg-TCID50/ml | lg-TCID50/ml after 15 min: 3.49 lg-TCID50/ml and 3.79 lg-TCID50/ml and 3.65 lg-TCID50/ml
